Laboratory results reported in PubChem BioAssay (NCI).
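Growth conditions: 96-well plates. Treatment: test compound, 48 hours, 5 concentrations. Analysis: linear interpolation between bracketing concentrations; unreached endpoints set to highest concentration. At the GI50, growth is halved. The concentration for full growth arrest is given as TGI.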

Columns and labels:
Experiment in all cases: growth of human tumour cells (NCI), 48 h
RPMI-8226 leukemia = system: RPMI-8226 leukemia
LOX IMVI melanoma = system: LOX IMVI melanoma
NCI/ADR-RES ovarian = system: NCI/ADR-RES ovarian
MALME-3M melanoma = system: MALME-3M melanoma
A549 NSCLC = system: A549 NSCLC
SF-295 CNS = system: SF-295 CNS
TK-10 renal = system: TK-10 renal
HCT-116 colon = system: HCT-116 colon
DLD-1 colon = system: DLD-1 colon

Row | Compound | GI50 (RPMI-8226 leukemia) | TGI (RPMI-8226 leukemia) | GI50 (LOX IMVI melanoma) | TGI (LOX IMVI melanoma) | GI50 (NCI/ADR-RES ovarian) | TGI (NCI/ADR-RES ovarian) | GI50 (MALME-3M melanoma) | TGI (MALME-3M melanoma) | GI50 (A549 NSCLC) | TGI (A549 NSCLC) | GI50 (SF-295 CNS) | TGI (SF-295 CNS) | GI50 (TK-10 renal) | TGI (TK-10 renal) | GI50 (HCT-116 colon) | TGI (HCT-116 colon) | TGI (DLD-1 colon)
1 | O=c1c(Cc2ccc3c(c2)OCO3)nnc2sc(-c3cc(F)c(Cl)cc3Cl)nn12 | 30.6 µM | > 100 µM | 44.4 µM | > 100 µM | 63.7 µM | > 100 µM | 24.7 µM | 85.3 µM | 41.8 µM | > 100 µM | 72.5 µM | > 100 µM | 22.6 µM | 65 µM | 23.5 µM | > 100 µM | 
2 | Cc1n[nH]c2ccccc2c1=O |  | > 100 µM |  | > 100 µM |  | > 100 µM |  | > 100 µM |  | > 100 µM |  | > 100 µM |  | > 100 µM |  | > 100 µM | 
3 | COc1c2ccoc2nc2c(OC)c(OCC(O)C(C)(C)O)ccc12 (configuration not stated) |  | > 100 µM |  | > 100 µM |  | > 100 µM |  | > 100 µM |  | > 100 µM |  | > 100 µM |  | > 100 µM |  | > 100 µM | 
4 | Nc1cc2c3c(cccc3c1)C(=O)N(CCN1CCCC1)C2=O | 1.23 µM | 11.9 µM | 2.25 µM | 13.4 µM | 3.62 µM | > 51.4 µM | 2.49 µM | 7.68 µM | 1.79 µM | > 100 µM | 2.59 µM | 11.2 µM | 5.49 µM | 33.7 µM | 2.73 µM | > 35 µM | 
5 | CC(C)(C)C[C@H]1N[C@@H](C(=O)NC2CCC(O)CC2)[C@H](c2cccc(Cl)c2F)[C@@]12C(=O)Nc1cc(Cl)ccc12 (some centres not stated) | 2.63 µM | 8.41 µM | 0.577 µM | 18.1 µM | 14 µM | 33.9 µM | 0.131 µM | 3.98 µM | 0.778 µM | 16.4 µM | 3.46 µM | 13.6 µM | 11.9 µM | 25 µM | 0.41 µM | 11.9 µM | 
6 | COC1=CC(=O)O/C1=C(\OC)C1OC1c1ccccc1 (configuration not stated) |  | > 100 µM |  | > 100 µM |  | > 100 µM |  | > 100 µM |  | > 100 µM |  | > 100 µM |  | > 100 µM |  | > 100 µM | 
7 | CC(C)(C)C#COC(=O)c1ccccc1 |  | > 100 µM |  | > 100 µM |  |  |  | > 100 µM |  | > 100 µM |  | > 100 µM |  |  |  | > 100 µM | > 100 µM
8 | O=c1c2cccnc2ncn1CCCN1CCCCC1 |  |  |  | > 100 µM |  |  |  | > 100 µM |  | > 100 µM |  | > 100 µM |  | > 100 µM |  | > 100 µM | > 100 µM
9 | CCOC(=O)Nc1ccc2nc(-c3cscn3)[nH]c2c1 | 4.6 µM | > 100 µM | 5.18 µM | > 100 µM | 2.71 µM | > 74.9 µM | 1.75 µM | > 100 µM | 5.99 µM | > 100 µM | 4.78 µM | 57.6 µM | 28.6 µM | > 100 µM | 3.87 µM | > 100 µM | 
10 | COc1ccc(-c2ccc(CC(=O)O)cc2)cc1OC |  | > 100 µM |  |  |  |  |  | > 100 µM |  | > 100 µM |  | > 100 µM |  | > 100 µM |  | > 100 µM | > 100 µM
11 | COc1cc(C2CC(c3ccc(Nc4nc(NCCO)nc(NCCO)n4)cc3)=NN2c2cc(Cl)cc(Cl)c2)cc(OC)c1OC (configuration not stated) | 1.15 µM | 6.28 µM | 1.6 µM | 3.1 µM | 3.37 µM | 12.8 µM | 1.96 µM | 3.84 µM | 1.38 µM | 3.22 µM | 1.16 µM | 2.87 µM | 2.01 µM | 4.45 µM | 1.28 µM | 2.67 µM | 
12 | C1=CC(=P(c2ccccc2)(c2ccccc2)c2ccccc2)C=C1 |  | 11 µM |  | 24.6 µM |  |  |  | 17.4 µM |  | 79.7 µM |  | 30.8 µM |  | 50.9 µM |  |  | 62.5 µM
13 | CC1(C)CC(C)(C)c2cc(NC(=S)Nc3ccc([N+](=O)[O-])cc3)ccc2S1 | 31 µM | 99.8 µM | 12.4 µM | 31.9 µM | 13.9 µM | 48.2 µM | 2.62 µM | 10.1 µM | 12.3 µM | 52.7 µM | 10.8 µM | 27.2 µM | 10.3 µM | 24.8 µM | 14.9 µM | > 100 µM | 
14 | Cc1cccc(C2NC(=O)c3ccccc3N2)c1 (configuration not stated) |  | > 27 µM |  | > 100 µM |  | > 47.2 µM |  | > 100 µM |  | > 100 µM |  | > 23.2 µM |  | > 100 µM |  | > 100 µM | 
15 | O=C1c2cccc3cccc(c23)C(=O)N1CCCCCN1CCN(CCN=c2cc3n(-c4ccc(Cl)cc4)c4ccccc4nc-3cc2Nc2ccc(Cl)cc2)CC1 | 5.22 µM | 16.9 µM | 9.83 µM | 29.8 µM | 6.95 µM | 19.4 µM | 20.8 µM | > 50 µM | 25.9 µM | > 50 µM | 13 µM | > 50 µM | 25 µM | > 50 µM | 7.79 µM | 17.5 µM | 
16 | Clc1ccccc1C(Nc1cnccn1)Nc1cnccn1 |  | > 100 µM |  | > 100 µM |  | > 100 µM |  | > 100 µM |  | > 100 µM |  | > 100 µM |  | > 100 µM |  | > 100 µM | 
17 | COC(=O)C(C(=O)C(=O)Nc1c(C)cccc1C(C)(C)C)c1nc2ccc(Cl)cc2[nH]c1=O (configuration not stated) |  | > 100 µM |  | > 100 µM |  | > 100 µM |  | > 100 µM |  | > 100 µM |  | > 100 µM |  | > 100 µM |  | > 100 µM | 
18 | CCOc1ccc(NC(=O)/C(CC(=O)c2c[n+](=O)c3ccccc3n2[O-])=N\OCCCc2ccccc2)cc1 |  | > 100 µM |  |  |  |  |  | > 100 µM |  | > 100 µM |  | > 100 µM |  | > 100 µM |  | > 100 µM | > 100 µM
19 | CCCCNC(c1ccc(Cl)cc1)C(O)c1ccc(Cl)cc1 (configuration not stated) | 2.09 µM | 5.51 µM | 1.39 µM | 2.7 µM | 1.81 µM | 5.35 µM | 1.52 µM | 3.08 µM | 3.87 µM | 17.8 µM | 1.02 µM | 2.44 µM | 2.2 µM | 6.99 µM | 0.938 µM | 2.27 µM | 
20 | COc1ccc2c(c1)C(=O)c1c-2c(OCCCN(C)C)nc2cc(Br)ccc12 | 15.9 µM | 39.7 µM | 11.3 µM | 23.7 µM | 2.84 µM | 16.5 µM | 1.87 µM | 4.64 µM | 3.52 µM | 11.4 µM | 7.3 µM | 20.7 µM | 4.17 µM | 13.8 µM | 5.16 µM | 18.5 µM | 
21 | O=C(Nc1n[nH]c2cc(-c3cc(F)ccc3F)ccc12)C1CC1 | 13.1 µM | > 25 µM | 14.4 µM | > 25 µM | 9.31 µM | > 25 µM | 14.2 µM | > 25 µM | 11.4 µM | > 25 µM | 16.9 µM | > 25 µM | > 25 µM | > 25 µM | 9.78 µM | > 25 µM | 
22 | COc1cc(C)c2c(c1)CN1CN2Cc2cc(OC)cc(C)c21 |  | > 100 µM |  | > 100 µM |  |  |  | > 100 µM |  | > 100 µM |  | > 100 µM |  |  |  | > 100 µM | > 100 µM
23 | COc1cc2c(cc1OCCNC(=O)/C=C1\C[C@H]3C=Nc4cc(OCc5ccccc5)c(OC)cc4C(=O)N3C1)N=C[C@@H]1CCCN1C2=O | 1.18 µM | 2.74 µM | 2.75 µM | 7.31 µM | > 100 µM | > 100 µM | 2.2 µM | 6.69 µM | 22.3 µM | 52.3 µM | 18.3 µM | > 100 µM | 7.07 µM | 36.7 µM | 2.93 µM | 11.9 µM | 
24 | COC1=CC(c2ccc[nH]2)=N/C1=C\c1[nH]c(C)c(C(=O)CCCCCCCCC(=O)O[C@H]2CC[C@H]3C4CCc5cc(O)ccc5C4CC[C@]23C)c1C (some centres not stated) | 1.63 µM | > 50 µM | 0.0764 µM | 0.267 µM | 25.9 µM | > 50 µM | 2.49 µM | > 36.3 µM | 1.11 µM | 8.88 µM | 1.09 µM | > 43.8 µM | 0.861 µM | > 50 µM | 0.159 µM | > 22.1 µM | 
25 | CCCCCCCC(=O)OCC/C=C/C1OC1C1OC(=O)/C=C\C=C\C(=O)N(C(C)=O)C(=O)/C=C(/C)CCC2OC2C1OC(=O)NC(C)=O (configuration not stated) | 0.959 µM | 4.03 µM | 2.93 µM | 6.74 µM | > 25 µM | > 25 µM | > 25 µM | > 25 µM | 21.6 µM | > 25 µM | 2.16 µM | 9.9 µM | 6.91 µM | 22.2 µM | 1.8 µM | 4.97 µM | 
26 | CCOc1c(Br)cc(Br)cc1C=C(C#N)C#N |  | > 10 µM |  | 7.36 µM |  | 4.98 µM |  | > 10 µM |  | > 10 µM |  | > 10 µM |  | > 10 µM |  | > 10 µM | 
27 | Cc1ccc(/C(=N/Nc2ccc([N+](=O)[O-])cc2)Sc2cc(Cl)c(C)cc2S(N)(=O)=O)cc1 | 1.82 µM | 4.27 µM | 1.49 µM | 3.45 µM | 2.03 µM | 4.91 µM | 1.91 µM | 4.58 µM | 2.55 µM | 7.45 µM | 1.75 µM | 3.39 µM | 1.61 µM | 3.38 µM | 1.13 µM | 2.34 µM | 
